# Source: patent EP1900728A1 (Genecare Research Institute Co., Ltd, priority 2005, dated 2006)
# Molecular target: T1, IκBα ubiquitinating enzyme (SCF complex: ROC1, Cullin1, Skp1, His-TrCP1; with E1, UbcH5b) (Homo sapiens, UniProt P62877+P63208+Q13616+Q9Y297)
# T1 construct: His (polyhistidine); made in house; host or cells: insect cells (baculovirus) for the SCF complex and His-E1; E. coli for His-UBCH5b
# Assay: Measurement of ubiquitinating enzyme activity (IκBα ubiquitination, time-resolved fluorescence with Eu(K)-labeled ubiquitin and XL665-labeled anti-GST antibody)
# Assay type: biochemical
# Details: enzyme activity inhibition test, method (1), Table 5; read-out: EVALUATION
# Method: Method 1: Measurement of ubiquitinating enzyme activity
# A recombinant vector His-UBCH5b containing a polyhistidine tag (His) and UBCH5b was prepared. E. coli was transformed with the vector, the protein was expressed, and affinity purification was carried out using Ni-NTA agarose (Qiagen). Four types of recombinant baculoviruses (ROC1, Cullin1, Skp1, and His-TrCP1) were prepared for the SCF complex protein, insect cells were infected in quadruplicate for expression, and affinity purification was carried out using Ni-NTA agarose. Recombinant baculoviruses His-IKKβ, His-E1 were prepared. The insect cells were infected with each of those for expression, and affinity purification was carried out using Ni-NTA agarose. A recombinant vector GST-IκBα was prepared by fusing glutathione-S-transferase tag (GST) and IκBα, E. coli was transformed with the vector for the protein expression, and affinity purification was carried out using glutathione sepharose (Amersham Biosciences). Genetic transformants were prepared by PCR amplification followed by recombination, all of which were based on published human-derived sequences.
# Phosphorylation reaction of IκBα was performed by incubating the above-mentioned assay buffer (50 mM Tris-HCl (pH7.4), 2 mM ATP, 5 mM MgCl2, 0.5 mM DTT, 0.1% BSA) containing IκBα and IKKβ at room temperature for 1 hour. Ubiquitination reactions were carried out as follows. Compound samples at various concentrations, ubiquitin, Eu (K)-labeled ubiquitin, E1, UbcH5b, and SCF complex were added to phosphorylated IκBα, and then this was incubated at room temperature for 30 minutes. The reaction was terminated by adding EDTA, the above-mentioned revelation buffer (100 mM phosphate buffer (pH7.0), 0.5 M KF, 0.1% BSA) containing XL665-labeled anti-GST antibody was added and this was left to stand at room temperature for 2 hours. Measurements were made using ARVO-HTS (Perkin Elmer). The ratio of fluorescence intensities at 620 nm and 665 nm (Em 665 nm/Em 620 nm x 10,000) with excitation light at 337 nm was measured.
# The ubiquitination level without the addition of a compound sample was used as the control value, and the level in the absence of SCF complex was used as the blank value for the assays. Inhibitory activities of the compounds were indicated as % inhibition = 100 - (value with a compound sample added - blank value) / (control value - blank value) x 100. IC50 was indicated as the concentration of the compound showing 50% inhibition. Eu (K)-labeled ubiquitin, XL665-labeled anti-GST antibody, and XL665-labeled anti-His antibody were purchased from CIS bio international. Costar solid black plates (96 wells) were used for the assays.
# T1 sequence (Q9Y297 whole entry): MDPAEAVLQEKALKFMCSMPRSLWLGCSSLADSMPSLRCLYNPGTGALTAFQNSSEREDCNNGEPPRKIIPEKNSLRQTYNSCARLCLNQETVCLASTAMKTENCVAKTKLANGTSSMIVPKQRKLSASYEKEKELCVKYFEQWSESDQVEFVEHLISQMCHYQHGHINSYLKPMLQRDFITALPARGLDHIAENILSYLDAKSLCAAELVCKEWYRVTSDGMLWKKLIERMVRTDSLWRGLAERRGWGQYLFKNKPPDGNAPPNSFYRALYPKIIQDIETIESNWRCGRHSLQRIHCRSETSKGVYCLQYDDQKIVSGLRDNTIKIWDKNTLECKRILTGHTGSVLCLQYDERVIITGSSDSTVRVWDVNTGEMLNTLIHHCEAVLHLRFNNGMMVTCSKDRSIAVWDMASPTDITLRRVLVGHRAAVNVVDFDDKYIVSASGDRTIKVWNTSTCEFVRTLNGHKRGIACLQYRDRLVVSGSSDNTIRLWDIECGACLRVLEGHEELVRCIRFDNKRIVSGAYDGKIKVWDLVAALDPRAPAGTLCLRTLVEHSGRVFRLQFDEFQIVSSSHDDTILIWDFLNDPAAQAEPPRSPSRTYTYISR
# T1 sequence (Q13616 whole entry): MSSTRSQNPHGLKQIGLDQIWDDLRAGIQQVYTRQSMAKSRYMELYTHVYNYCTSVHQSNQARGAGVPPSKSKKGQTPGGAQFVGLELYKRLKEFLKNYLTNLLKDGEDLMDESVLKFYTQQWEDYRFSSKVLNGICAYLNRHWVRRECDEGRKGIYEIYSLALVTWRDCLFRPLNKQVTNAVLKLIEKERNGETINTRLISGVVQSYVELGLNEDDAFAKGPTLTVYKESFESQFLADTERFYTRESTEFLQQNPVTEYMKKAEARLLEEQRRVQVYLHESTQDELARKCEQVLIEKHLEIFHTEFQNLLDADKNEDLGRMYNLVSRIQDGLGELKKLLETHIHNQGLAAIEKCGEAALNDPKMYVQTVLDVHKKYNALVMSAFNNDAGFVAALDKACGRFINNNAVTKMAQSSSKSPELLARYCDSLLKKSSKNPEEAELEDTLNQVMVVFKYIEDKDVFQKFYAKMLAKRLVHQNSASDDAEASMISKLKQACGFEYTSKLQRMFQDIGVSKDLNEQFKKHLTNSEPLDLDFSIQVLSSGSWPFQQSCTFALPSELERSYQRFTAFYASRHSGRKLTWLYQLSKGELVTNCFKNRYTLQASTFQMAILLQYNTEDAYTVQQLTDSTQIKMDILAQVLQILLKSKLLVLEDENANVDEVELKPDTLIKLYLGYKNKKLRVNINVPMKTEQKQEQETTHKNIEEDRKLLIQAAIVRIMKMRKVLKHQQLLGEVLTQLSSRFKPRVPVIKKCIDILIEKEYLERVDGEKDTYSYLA
# T1 sequence (P63208 whole entry): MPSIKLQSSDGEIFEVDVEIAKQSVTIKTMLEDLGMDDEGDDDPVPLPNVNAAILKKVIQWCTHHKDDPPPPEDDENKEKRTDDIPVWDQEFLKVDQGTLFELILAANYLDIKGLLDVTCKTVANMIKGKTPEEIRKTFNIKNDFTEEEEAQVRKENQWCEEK
# T1 sequence (P62877 whole entry): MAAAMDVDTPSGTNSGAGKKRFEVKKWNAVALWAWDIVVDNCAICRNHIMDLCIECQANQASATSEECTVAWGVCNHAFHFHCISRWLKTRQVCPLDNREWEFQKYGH
row,Structure (SMILES),IC50 [µM]
1,CC1=NN(c2ccc(C(=O)O)cc2)C(=O)C1=Cc1c[nH]c2ccc(Cl)cc12 [Compound 378],< 10
2,COCC1=NN(c2ccc(C(=O)O)cc2)C(=O)/C1=C\c1ccc2[nH]ccc2c1 [Compound 465],< 10
3,CC1=NN(c2cccc(C(=O)O)c2)C(=O)/C1=C\c1c(C)nn(C)c1Cl [Compound 513],< 40
4,CC1=NN(c2cccc(C(=O)N3CCCCC3)c2)C(=O)/C1=C\c1ccc2[nH]ccc2c1 [Compound 369],< 10
5,CC1=NN(c2ccc(C(=O)N3CCC(C(=O)O)CC3)cc2)C(=O)/C1=C\c1ccc2[nH]ccc2c1 [Compound 352],< 10
6,CC1=NN(c2ccc(S(N)(=O)=O)cc2)C(=O)/C1=C\c1ccc(C(=O)O)cc1 [Compound 223],10 to 20
7,CC1=NN(c2cccc(S(N)(=O)=O)c2)C(=O)/C1=C\c1ccc(N2CCCC2CO)cc1 (stereo not shown) [Compound 174],< 40
8,CCCCC1=NN(c2ccccc2)C(=O)/C1=C\c1ccc2ccccc2c1 [Compound 51],< 40
9,COc1cc(/C=C2\C(=O)N(c3cccc(C(=O)O)c3)N=C2C)ccc1OCc1c(C)noc1C [Compound 394],10 to 20
10,CC1=NN(c2ccc(S(N)(=O)=O)cc2)C(=O)C1=Cc1ccc(N2CCCC2CO)cc1 (stereo not shown) [Compound 172],< 40
11,O=C1/C(=C\c2ccc3ccccc3c2)C(Cc2ccccc2)=NN1c1ccccc1 [Compound 23],< 40
12,CC1=NN(c2cccc(C(=O)O)c2)C(=O)/C1=C\c1cccs1 [Compound 508],< 40
13,CC(C)(C)OC(=O)N1CCN(C(=O)C2=NN(c3ccccc3)C(=O)C2=Cc2ccc(N3CCCC3)cc2)CC1 [Compound 89],< 40
14,CC1=NN(c2cccc(C(=O)O)c2)C(=O)/C1=C\c1ccoc1 [Compound 418],10 to 20
15,COc1cc(C=C2C(=O)N(c3ccc(S(N)(=O)=O)cc3)N=C2C)ccc1OCC1CCCCC1 [Compound 161],< 40
16,COc1cc(/C=C2\C(=O)N(C)N=C2C)ccc1O [Compound 132],< 40
17,COc1ccc(C2=NN(c3ccccc3)C(=O)/C2=C\c2ccc(CO)o2)cc1 [Compound 90],< 40
18,CCCCC1=NN(c2ccccc2)C(=O)/C1=C\c1ccc(-n2cncn2)cc1 [Compound 59],10 to 20
19,O=C1/C(=C\c2ccc(-n3cncn3)cc2)C(Cc2ccccc2)=NN1c1ccccc1 [Compound 31],< 40
20,O=C1/C(=C\c2ccc3c(c2)OCCO3)C(c2ccncc2)=NN1c1ccccc1 [Compound 46],< 40
21,COc1ccc(C2=NN(c3ccc(C(=O)O)cc3)C(=O)C2=Cc2ccc(N3CCN(C)CC3)cc2)cc1OC [Compound 285],10 to 20
22,CC1=NN(c2cccc(S(N)(=O)=O)c2)C(=O)/C1=C\c1ccc(N2CCN(c3ccccc3)CC2)cc1 [Compound 170],< 10

row,Structure (SMILES),IC50 [µM]
1,CC1=NN(c2ccc(S(=O)(=O)N3CCC(O)CC3)cc2)C(=O)/C1=C\c1ccc2c(c1)OCO2 [Compound 162],< 40
2,CC1=NN(c2ccc(S(N)(=O)=O)cc2)C(=O)/C1=C\c1ccc2occc2c1 [Compound 144],10 to 20
3,COc1cc(/C=C2\C(=O)N(c3ccccc3)N=C2c2ccncc2)ccc1O [Compound 40],< 40
4,CC1=NN(c2ccccc2)C(=O)/C1=C\c1ccc(N2CCN(C)CC2)cc1 [Compound 99],10 to 20
5,O=C(O)c1ccc(N2N=C(c3cccnc3)/C(=C/c3ccc4c(c3)OCCO4)C2=O)cc1 [Compound 310],10 to 20
6,CC1=NN(c2cccc(C(=O)O)c2)C(=O)/C1=C\c1ccc2c(c1)OCCO2 [Compound 402],10 to 20
7,CC1=NN(c2cccc(S(N)(=O)=O)c2)C(=O)C1=Cc1cc2ccccc2n1C [Compound 141],10 to 20
8,CCCCC1=NN(c2ccccc2)C(=O)/C1=C\c1ccc(OCc2ccccc2)c(OC)c1 [Compound 52],< 40
9,CC1=NN(c2ccc(S(N)(=O)=O)cc2)C(=O)/C1=C\c1ccc(OCC(=O)N(C)C)cc1 [Compound 209],10 to 20
10,CC1=NN(c2ccc(C(=O)O)cc2)C(=O)/C1=C\c1ccsc1 [Compound 511],< 40
11,CC1=NN(c2ccc(C(=O)N3CCN(c4ccccc4)CC3)cc2)C(=O)C1=Cc1ccc2[nH]ccc2c1 [Compound 353],< 10
12,CCCCC1=NN(c2ccccc2)C(=O)C1=Cc1ccc(N2CCN(C)CC2)cc1 [Compound 106],< 40
13,CC1=NN(c2cccc(S(N)(=O)=O)c2)C(=O)/C1=C\c1ccc2occc2c1 [Compound 143],< 40
14,COc1cc(/C=C2\C(=O)N(c3ccc(S(N)(=O)=O)cc3)N=C2C)ccc1OCC1CC1 [Compound 159],10 to 20
15,CCCCC1=NN(c2ccccc2)C(=O)/C1=C\c1nccs1 [Compound 105],< 40
16,CC1=NN(c2ccc(S(N)(=O)=O)cc2)C(=O)C1=Cc1ccc(N2CCNCC2)cc1 [Compound 183],10 to 20
17,O=C(O)c1ccc(N2N=C(c3ccoc3)C(=Cc3ccc(N4CCC(O)CC4)s3)C2=O)cc1 [Compound 251],< 40
18,O=C1/C(=C\c2ccc(CO)o2)C(c2ccncc2)=NN1c1ccccc1 [Compound 44],< 40
19,COCC1=NN(c2ccccc2)C(=O)/C1=C\c1ccc(N2CCN(C(=O)OC)CC2)cc1 [Compound 5],< 40
20,CC1=NN(c2ccc(C(=O)O)cc2)C(=O)C1=Cc1ccc(N2CCC(N3CCCC3)CC2)cc1 [Compound 450],< 40
21,COc1cc(/C=C2\C(=O)N(c3ccc(C(=O)O)cc3)N=C2c2ccc(OC)c(OC)c2)ccc1O [Compound 332],10 to 20
22,COCC1=NN(c2ccccc2)C(=O)/C1=C\c1ccc2c(c1)OCCO2 [Compound 9],10 to 20

row,Structure (SMILES),IC50 [µM]
1,CC1=NN(c2cccc(S(N)(=O)=O)c2)C(=O)C1=Cc1cccc2[nH]ccc12 [Compound 137],10 to 20
2,CC1=NN(c2cccc(C(=O)O)c2)C(=O)/C1=C\c1ccc2[nH]ccc2c1 [Compound 364],< 10
3,CC1=NN(c2ccc(C(=O)N3CCCC3CO)cc2)C(=O)/C1=C\c1ccc2[nH]ccc2c1 (stereo not shown) [Compound 362],< 10
4,CC1=NN(c2ccc(S(N)(=O)=O)cc2)C(=O)C1=Cc1ccc(NC(=O)c2ccco2)cc1 [Compound 231],< 10
5,CC1=NN(c2ccc(C(=O)N3CCCCC3)cc2)C(=O)/C1=C\c1ccc2[nH]ccc2c1 [Compound 358],< 10
6,CC1=NN(c2ccc(S(N)(=O)=O)cc2)C(=O)C1=Cc1cccc(C(=O)O)c1 [Compound 222],10 to 20
7,CC1=NN(c2cccc(S(N)(=O)=O)c2)C(=O)/C1=C\c1ccc(N2CCC(O)C2)cc1 (stereo not shown) [Compound 178],< 40
8,COc1ccc(C2=NN(c3ccc(C(=O)O)cc3)C(=O)/C2=C\c2ccc(-n3ccnc3)cc2)cc1OC [Compound 282],< 40
9,COc1cc(/C=C2/C(=O)N(c3cccc(N)c3)N=C2C)ccc1O [Compound 198],< 40
10,NS(=O)(=O)c1ccc(N2N=C(C3CC3)/C(=C/c3ccc(-n4cncn4)cc3)C2=O)cc1 [Compound 111],< 40
11,COc1ccc(C2=NN(c3ccc(C(=O)O)cc3)C(=O)C2=Cc2ccc(-n3cccn3)cc2)cc1OC [Compound 342],< 40
12,CC(=O)OCc1ccc(/C=C2\C(=O)N(c3cccc(C(=O)O)c3)N=C2C)o1 [Compound 516],< 40
13,COC(=O)N1CCN(c2ccc(C=C3C(=O)N(c4ccc(C(=O)O)cc4)N=C3c3ccccn3)cc2)CC1 [Compound 335],10 to 20
14,CC1=NN(c2cccc(C(=O)O)c2)C(=O)/C1=C\c1ccc(N2CCC(CO)CC2)cc1 [Compound 421],< 10
15,COc1cc(/C=C2\C(=O)N(c3ccc(S(N)(=O)=O)cc3)N=C2C)ccc1OCn1nnc2ccccc21 [Compound 156],10 to 20
16,CC1=NN(c2cccc(C(=O)NC[C@H](C)O)c2)C(=O)/C1=C\c1ccc2c(c1)OCCO2 [Compound 401],10 to 20
17,COc1cc(/C=C2\C(=O)N(c3ccccc3)N=C2c2cccnc2)ccc1O [Compound 60],< 40
18,COCCC1=NN(c2cccc(C(=O)O)c2)C(=O)/C1=C\c1ccc(-c2ccccc2F)o1 [Compound 526],< 40
19,COc1cc(/C=C2\C(=O)N(c3cccc(S(N)(=O)=O)c3)N=C2C)ccc1OCn1nnc2ccccc21 [Compound 157],10 to 20
20,CC1=NN(c2cccc(C(=O)N(C)CCO)c2)C(=O)/C1=C\c1ccc2c(c1)OCCO2 [Compound 414],10 to 20
